Reference: patent US9849134B2, “Method of improving cognition and social behavior in humans having deficits therein due to neurodegenerative disorders and compounds and compositions therefor” (The Board of Trustees of the Leland Stanford Junior …, priority 2014, dated 2017)
“Also recorded” adds a separate entry of the source. Structures can show the parent of a compound that is named as a salt. Where two headings read alike, the source gives them in different places. * marks the point of attachment. Myristoyl = CCCCCCCCCCCCCC(=O)*

Key:
β-arrestin pathway = β-arrestin pathway activation; type: cell-based
C57BI/6 mice = conditions: single dose 1 mg/kg
β2-ADR KO mice = conditions: 3 mg/kg
Description: (§1) Behavioral testing. Social recognition was tested in two different tests: the 3-chamber social test developed by Nadler et al and the in-home cage social discrimination task developed by Macbeth et al. To differentiate between social recognition and recognition of non-social odors/objects non-social odor discrimination tests (olfactory habituation/dishabituation and olfactory recognition test) and an object recognition test were used.

c-Fos = system: c-Fos
Description: (§2) Molecular analyses. Immunohistochemistry was used to assess c-Fos, tyrosine hydroxylase (TH) and β1-ADR. The quantitative analysis of stained cells was done in different brain regions according to the Mouse Brain Atlas. Cell counting was achieved using the unbiased-stereologic method. The total number of positive cells was quantified with the optical fractionator method using the StereoInvestigator software (MBF Bioscience, Williston, Vt., USA). The counting criteria were determined so as to obtain a mean coefficient of error ≦0.10. Analysis of pCREB was performed by western blot.
Brain regions involved in social recognition have already been defined. Among them are the lateral septum, prefrontal cortex and MeA. […] We used c-Fos as a marker of neuronal activity and compared its expression in a group of C57B1/6 mice after social learning with a group of mice after both social learning and social recognition.

C57B1/6 mice [1] = assay: Social recognition tests (in-home cage social discrimination, 3-chamber) in C57B1/6 mice; type: in vivo
Description: (§3) Behavioral testing. […] Drug treatment. […] Betaxolol was injected sub-cutaneously (1 mg/kg) or in the MeA (30 nmole/side). PKI 14-22 amide was dissolved in 30% acetonitrile and injected in the MeA (2.75 nmole/side).

mice and rats = conditions: cited from earlier work
pCREB [2] = assay: Western blot of pCREB in C57B1/6 mice; type: in vivo
Description: as §2
We then tested whether pharmacological modulation of β1-ADR affects CREB phosphorylation in the MeA in the context of social learning.

C57B1/6 mice [3] = system: C57B1/6 mice
Description: as §1
We assessed the ability of C57B1/6 mice to recognize a previously-met conspecific after an acute subcutaneous injection of various doses of a selective β1-ADR antagonist, betaxolol (0.01, 0.1 and 1 mg/kg).

[4] = system: humans with heart failure; conditions: 200 mg twice daily for 2-12 months; cited from earlier work
[5] = system: Thy1-hAPP^Lond/Swe+ line transgenic mice; assay: Activity chamber test (locomotor activity) in Thy1-hAPP^Lond/Swe+ mice; type: in vivo; conditions: 0.3 and 1 mg/kg s.c., chronic, after 1 month
wild type mice = assay: Cardiac safety after chronic treatment in wild type mice; type: in vivo; conditions: 3 months
[6] = Xamoterol concentration in plasma and brain after s.c. injection; type: in vivo; conditions: mice; for concentration at 30 min / concentration at 1 h / concentration at 2 h: C57Bl/6, mouse, sc, 3 mg/kg s.c.
Description: Mice are euthanized at 3, 15, 30, 60, 120, 240 and 360 minutes after drug administration. Blood is drawn by cardiac puncture and collected in heparinized tubes. Plasma is immediately separated by centrifugation and stored at −80° C. until assay. For tissue distribution studies, tissue samples from the brain, heart, kidney, liver and spleen are collected 60 and 120 minutes after drug administration. The tissue samples are homogenized using 0.9% saline at a ratio of 1:2. The homogenates are stored at −80° C. until analysis. […] 2(2): p.

[7] = system: Thy1-hAPP^Lond/Swe+ line transgenic mice; assay: Fear conditioning test in Thy1-hAPP^Lond/Swe+ mice; type: in vivo; conditions: 0.3 and 1 mg/kg s.c., chronic, after 2.5 months
[8] = system: Thy1-hAPP^Lond/Swe+ mice (APP); assay: Social recognition test in APP mouse model of AD; type: in vivo
Description: as §3

pCREB [9] = assay: Western blot of pCREB in medial amygdala of APP mice and WT controls; type: in vivo
Description: as §2, with “Immunohistochemistry was used to assess c-Fos, tyrosine hydroxylase (TH) and β1-ADR.” left out, “blot. […] It was reported that in Alzheimer's disease several phosphorylated proteins and transcription factors are preferentially located in the cytoplasm (vs. the nucleus) and are thus inefficient in inducing expression of genes important for learning and memory.” for “blot.”

5xFAD mice = assay: Chronic dosing in 5xFAD mouse model of AD (memory, Morris-Water Maze, microglia, plaques); type: in vivo
Thy1-APP^Lond/Swe+ mice = assay: Working memory in Thy1-APP^Lond/Swe+ mice; type: in vivo; conditions: acute s.c. 3 mg/kg
[10] = 1 mg/kg, 20 minutes prior to learning phase

## CC(C)NCC(O)c1ccc(O)c(O)c1 (stereo not drawn) [isoprenaline]
β-arrestin pathway
  Effect on β-arrestin pathway: activates both cAMP and β-arrestin pathways

## CC(C)NCC(O)COc1ccc(CCOCC2CC2)cc1 (stereo not drawn) [betaxolol]
C57BI/6 mice
  Contextual memory: impairment of contextual memory
β2-ADR KO mice
  Social recognition in β2-ADR KO mice: effectively impaired social recognition abilities
c-Fos; 1 mg/kg prior to social recognition task
  Number of c-Fos positive cells in the MeA: decreased the number of c-Fos positive cells in the MeA
c-Fos; injection prior to social recognition task
  Number of c-Fos positive cells in the thalamus (PV): did not affect the number of c-Fos positive cells in the thalamus
c-Fos; vs vehicle-injected mice
  Percent of β1-ADR cells expressing c-Fos in MeA: significantly reduced
C57B1/6 mice [1]; 30 nmole in the MeA
  Social recognition after injection in the MeA: impairs social recognition
C57B1/6 mice [1]; 0.01 mg/kg s.c.
  Social recognition: preference for novel intruder over familiar one: showed this preference
C57B1/6 mice [1]; 0.1 mg/kg s.c.
  Social recognition: preference for novel intruder over familiar one: did not show a preference
C57B1/6 mice [1]; 1 mg/kg s.c.
  Social recognition: preference for novel intruder over familiar one: did not show a preference
C57B1/6 mice [1]; [10]
  Long-term social memory, 24 hours after learning phase: impaired long-term social memory
  Short term social recognition, dosing before learning phase: impaired short term social recognition
C57B1/6 mice [1]; 1 mg/kg, 30 minutes prior to retrieval phase
  Social recognition, dosing before retrieval phase: did not impair social recognition
C57B1/6 mice [1]; 1 mg/kg, systemic injection prior to learning phase
  Social recognition in 3-chamber test: impairs social recognition
C57B1/6 mice [1]; 0.01 to 1 mg/kg
  Social learning: preference for unfamiliar mouse over empty cup: did not affect social learning
Mice and rats; wild-type mice and rats
  Spatial navigation retrieval: produces spatial navigation retrieval deficit
pCREB [2]; 1 mg/kg, 60 minutes before social learning
  pCREB expression in MeA after 5 minutes of social interaction: significantly decreased
C57B1/6 mice [3]; 1 mg/kg
  Ability to recognize a familiar odor or object over a new one: not affected
  Non-social odor habituation, dishabituation and recognition: did not impair non-social odor recognition
C57B1/6 mice [3]; betaxolol vs vehicle
  Non-social odor recognition (heptanol / heptanol:octanol): did not impair non-social order recognition

## PKI 14-22 amide myristoylated (Myristoyl-SGRTGRRNA-NH2; SMILES CCCCCCCCCCCCCC(=O)N[C@@H](CO)C(=O)NCC(=O)N[C@@H](CCCNC(=N)N)C(=O)N[C@H](C(=O)NCC(=O)N[C@@H](CCCNC(=N)N)C(=O)N[C@@H](CCCNC(=N)N)C(=O)N[C@@H](CC(N)=O)C(=O)N[C@@H](C)C(N)=O)[C@@H](C)O; UniProt P61925 14-22, looked up, fragment) [PKA inhibitor]
C57B1/6 mice [1]; 2.75 nmole in the MeA
  Preference for unfamiliar conspecific over empty cup after injection in the MeA: did not affect
  Social recognition after injection in the MeA: impaired the ability of mice to recognize between a new and familiar conspecific

## O=C(NCCNCC(O)COc1ccc(O)cc1)N1CCOCC1 (racemic) [xamoterol, 1-p-Hydroxyphenoxy-3-beta-(morpholinocarbonamido)ethyl-amino-2-propanol hydrogen fumarate]
[4]
  Side effects of chronic treatment in humans: without any significant side effects
[5]
  Hyperactivity phenotype (locomotor activity): dose-dependent reversal of hyperactivity phenotype
Wild type mice; 3 mg/kg s.c., vs vehicle
  Cardiovascular functions (BP, heart rate, EF, FS, HW/BW): did not develop pathological changes in cardiac functions; also recorded: did not show significant difference in cardiovascular functions
  Myocardial fibrosis: did not induce cardiac fibrosis; also recorded: did not show significant difference
Wild type mice; 3 mg/kg, s.c.
  Myocardial structure (Masson's trichrome staining): did not produce changes in myocardial structure
[6]; brain, read-out: Brain
  concentration at 30 min: 168 ± 6.4 ng/mL
  concentration at 1 h: 116 ± 9.1 ng/mL
  concentration at 2 h: 125 ± 7.4 ng/mL
[6]; plasma, read-out: Plasma
  concentration at 30 min: 274 ± 75.9 ng/mL
  concentration at 1 h: 45.1 ± 6.1 ng/mL
  concentration at 2 h: 4.7 ± 0.7 ng/mL
[6]
  Passage of the BBB: passes the BBB and reach the central nervous system
β-arrestin pathway
  Effect on β-arrestin pathway: no effect on the β-arrestin pathway
[7]
  Cognitive functioning (fear conditioning test): dose-dependent improvement in cognitive functioning
[8]; 3 mg/kg systemic (s.c.), acute, prior to testing
  Social recognition deficit of APP mice: rescued the social recognition deficit
[8]; 3 mg/kg, WT and APP mice
  Preference for unfamiliar intruder over empty cup: did not affect the preference
Mice and rats; mice with NA deficiency
  Retrieval deficit in mice with NA deficiency: can be rescued
pCREB [9]; APP mice
  Total pCREB in MeA of APP mice after social learning: no significant increase
pCREB [9]; WT animals
  pCREB in MeA of WT littermates after social learning: induced an increase in pCREB
pCREB [9]; injection prior to social learning, nuclear fraction
  Nuclear pCREB level in medial amygdala of APP mice: significantly higher
5xFAD mice
  Activated microglia and Aβ plaque clearance: increased activated microglia and Aβ plaque clearance
  Performance in the Morris-Water Maze (escape latency, time in thigmotaxis): improved
5xFAD mice; daily oral 6 mg/kg over 3 months, 6 mg/kg
  Declarative memory deficit: rescued; also recorded: rescues the declarative and spatial memory deficits
pCREB [2]; 3 mg/kg s.c., after 15 minutes
  pCREB expression in mice brain: significant increase of pCREB
pCREB [2]; 3 mg/kg, 5 min after injection
  pCREB expression in MeA vs baseline: increased
Thy1-APP^Lond/Swe+ mice
  Working memory deficit: rescued; also recorded: rescues working memory and social recognition deficits
